Among the data in ChEMBL document CHEMBL1147449, “Synthesis of analogues of a potent antitumor saponin OSW-1” (Bioorg Med Chem Lett, 2004) are inhibition and IC50 values, retold here.

Holding throughout (settings): Homo sapiens
Assay [1] has as its system Ishikawa. Nature of the assay: Cytotoxicity (growth inhibition) against endometrial cancer ishikawa cell line at 10E-5 mol/L after 24 hr. It counts as functional.
The test system of assay [2] is Ishikawa. Nature of the assay: Cytotoxicity (growth inhibition) against endometrial cancer ishikawa cell line at 10E-8 mol/L after 24 hr. It is filed as functional.
Assay [3] has as its system Ishikawa. Kind of assay: Inhibition of the necrosis induced by compound in endometrial cancer ishikawa cell line after 24 hr. It counts as functional, cell-based.
The test system of assay [4] is MDA-MB-231. Nature of the assay: Cytotoxicity (growth inhibition) against breast cancer MDAMB-231 cell line at 10E-8 mol/L. It counts as functional.
Assay [5] deals with MDA-MB-231. Nature of the assay: Cytotoxicity (growth inhibition) against breast cancer MDAMB-231 cell line at 10E-9 mol/L. It is filed as functional.
Assay [6] deals with MCF7. Kind of assay: Cytotoxicity (growth inhibition) against breast cancer MCF-7 cell line at 10E-9 mol/L. It is filed as functional.
Assay [7] relates to Ishikawa. Nature of the assay: Cytotoxicity (growth inhibition) against endometrial cancer ishikawa cell line at 10E-7 mol/L after 24 hr. It counts as functional.
For assay [8], the system named is MDA-MB-231. Kind of assay: Cytotoxicity (growth inhibition) against breast cancer MDAMB-231 cell line at 10E-5 mol/L. It counts as functional.
The subject of assay [9] is MCF7. Nature of the assay: Cytotoxicity (growth inhibition) against breast cancer MCF-7 cell line at 10E-5 mol/L. It is filed as functional.
Assay [10] has as its system MCF7. Kind of assay: Inhibition of the necrosis induced by compound in breast cancer MCF-7 cell line. It is filed as functional, cell-based.
Assay [11] has as its system MCF7. Kind of assay: Cytotoxicity (growth inhibition) against breast cancer MCF-7 cell line at 10E-8 mol/L. It counts as functional.
Assay [12] concerns MCF7. Nature of the assay: Cytotoxicity (growth inhibition) against breast cancer MCF-7 cell line at 10E-6 mol/L. It is filed as functional.
Assay [13] deals with MDA-MB-231. Nature of the assay: Cytotoxicity (growth inhibition) against breast cancer MDAMB-231 cell line at 10E-7 mol/L. It is filed as functional.
The subject of assay [14] is MDA-MB-231. Nature of the assay: Cytotoxicity (growth inhibition) against breast cancer MDAMB-231 cell line at 10E-6 mol/L. It counts as functional.
For assay [15], the system named is MCF7. Nature of the assay: Cytotoxicity (growth inhibition) against breast cancer MCF-7 cell line at 10E-7 mol/L. It is filed as functional.
Assay [16] deals with Ishikawa. Kind of assay: Cytotoxicity (growth inhibition) against endometrial cancer ishikawa cell line at 10E-9 mol/L after 24 hr. It counts as functional.
Assay [17] relates to Ishikawa. Kind of assay: Cytotoxicity (growth inhibition) against endometrial cancer ishikawa cell line at 10E-6 mol/L after 24 hr. It is filed as functional.
Assay [18] deals with MDA-MB-231. Kind of assay: Inhibition of the necrosis induced by compound in breast cancer MDAMB-231 cell line. It counts as functional, cell-based.

As a reminder, the inhibition is the change of the read-out against control, counted positive when it falls. The low end stands for a weak effect, the high end for a strong effect. The IC50 is the concentration that inhibits the measured activity by half.

For `COc1ccc(C(=O)O[C@H]2[C@H](O[C@@H]3[C@@H](OC(C)=O)[C@H](O[C@H]4C[C@H]5[C@@H]6CC=C7C[C@@H](O)CC[C@]7(C)[C@H]6CC[C@]5(C)[C@@]4(O)[C@H](C)C(=O)CCC(C)C)OC[C@@H]3O)OC[C@@H](O)[C@@H]2O)cc1`, the inhibition at 10 µM in assay [1], in assay [8] and in assay [9] was 100% in each case. The inhibition at 0.01 µM in assay [2], in assay [4] and in assay [11] was 100% each time. Also, the IC50 in assay [3] stood at 3000 nM; in [10] it was 7000 nM; in assay [18], 500 nM. For the same compound, the inhibition at 0.001 µM was determined as 100% in [5], 87% in assay [6] and 95% in assay [16]. Further, the inhibition at 0.1 µM in assay [7], in assay [13] and in [15] was 100% throughout. For the same compound, the inhibition at 1 µM in [12], in assay [14] and in assay [17] was 100% in each case.
